For 23 compounds, IC50 and MIC results are on record in patent US20240382465A1, “AROMATIC ACETYLENE DERIVATIVE, AND PREPARATION METHOD THEREFOR AND USE THEREOF” (priority 2021, published 2024).

The term IC50 denotes the concentration that inhibits the measured activity by half. As usually defined, the MIC is the least concentration at which growth counts as inhibited.

In brackets after ≈: the same amount, converted by molar mass. Where two headings read alike, the source gives them in different places.

Experiment [1] concerns the target recombinant Pseudomonas aeruginosa LpxC (Pseudomonas aeruginosa (strain ATCC 15692 / DSM 22644 / CIP 104116 / JCM 14847 / LMG 12228 / 1C / PRS 101 / PAO1), UniProt P47205). Briefly: Inhibition of LpxC enzymatic activity (fluorescamine assay). Format: biochemical. In outline: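 Recombinant P. aeruginosa LpxC (5 nM) with substrate UDP-3-O-(R-3-hydroxydecanoyl)-GlcNAc (10 μM), 120 min at 25 °C; compound 8 points, 4-fold dilution, 0.61-10,000 nM. Product detected by fluorescamine (ex 390/em 495 nm) after stopping with pH 8.0 phosphate; % inhibition versus DMSO control.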

The test system of a further experiment is E. coli ATCC 25922. Briefly: Antibacterial activity, MIC by broth microdilution (CLSI). Format: cell-based. Particulars: Escherichia coli. In outline: (§1)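 Broth microdilution per CLSI, compound at 64-0.06 μg/mL final in twofold steps (1% DMSO from 100× working solutions). Inoculum 5×10^5 cfu/ml; plates incubated at 35° C for 18-24 hours.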
(Dilution methods test growth across graded concentrations, often in twofold steps.)

The subject of another experiment is K. pneumoniae ATCC13883. The experiment is described as above. The format is cell-based. To be noted: Klebsiella pneumoniae. In outline:
as §1

The mark [2] stands for this setting: ATCC25922, E. coli ATCC 25922, 35° C., 18 to 24 hours, read-out: MIC(E. coli).
The mark [3] stands for this setting: K. pneumoniae ATCC13883, 35° C., 18 to 24 hours, read-out: MIC(K. Pneumoniae).
The mark [4] stands for this setting: recombinant P. aeruginosa LpxC 5 nM, substrate 10 μM, 25° C., 120 minutes, read-out: IC50.

For `C[C@H](O)c1nccn1Cc1cc(-c2ccc(C#Cc3ccc(C(=O)NCCO)cc3)cc2)on1` [Example 25, (S)-N-(2-Hydroxyethyl)-4-((4-(3-((2-(1-hydroxyethyl)-1H-imidazol-1-yl)methyl)isoxazol-5-yl)phenyl)ethynyl)benzamide], the IC50 in experiment [1] turned out to be 20.3 nM. The MIC in the experiment on E. coli ATCC 25922 (setting [2]) stood at 1 µg/mL (≈ 2.19 µM); with K. pneumoniae ATCC13883 (setting [3]), 4 µg/mL (≈ 8.76 µM).
Turning to `C[C@H](O)c1nccn1Cc1cc(-c2ccc(C#Cc3ccc(CCC(=O)O)nc3)cc2)on1` [Example 58, (S)-3-(5-((4-(3-((2-(1-hydroxyethyl)-1H-imidazol-1-yl)methyl)isoxazol-5-yl)phenyl)ethynyl)pyridin-2-yl)propanoic acid], the IC50 in experiment [1] (setting [4]) came to 22 nM. The MIC was 4 µg/mL (≈ 9.04 µM) in the experiment on E. coli ATCC 25922 (setting [2]) and 8 µg/mL (≈ 18.1 µM) in the experiment with K. pneumoniae ATCC13883 (setting [3]).
Take `C[C@H](O)c1nccn1Cc1cc(-c2ccc(C#Cc3ccc(CN4CC(CC(=O)O)C4)nc3)cc2)on1` [Example 115, (S)-2-(1-((5-((4-(3-((2-(1-hydroxyethyl)-1H-imidazol-1-yl)methyl)isoxazol-5-yl)phenyl)ethynyl)pyridin-2-yl)methyl)azetidin-3-yl)acetic acid]: in experiment [1] (setting [4]), the IC50 stood at 24.5 nM. Moreover, the MIC amounted to 2 µg/mL (≈ 4.02 µM) in the experiment with E. coli ATCC 25922 (setting [2]) and 8 µg/mL (≈ 16.1 µM) with K. pneumoniae ATCC13883 (setting [3]).
As for `C[C@H](O)c1nccn1Cc1cc(-c2ccc(C#Cc3ccc(CNCCO)nc3)cc2)on1` [Example 60], the IC50 in experiment [1] (setting [4]) was determined as 26.4 nM. For the same compound, the MIC was determined as 2 µg/mL (≈ 4.51 µM) in the experiment on E. coli ATCC 25922 (setting [2]) and 4 µg/mL (≈ 9.02 µM) in the experiment with K. pneumoniae ATCC13883 (setting [3]).
Turning to `C[C@H](O)c1nccn1Cc1cc(-c2ccc(C#Cc3ccc(CNCCN)cc3)cc2)on1` [Example 57, (S)-1-(1-((5-(4-((4-(((2-aminoethyl)amino)methyl)phenyl)ethynyl)phenyl)isoxazol-3-yl)methyl)-1H-imidazol-2-yl)ethan-1-ol], the IC50 in experiment [1] (setting [4]) stood at 14.1 nM. Also, the MIC stood at 2 µg/mL (≈ 4.53 µM) in the experiment with E. coli ATCC 25922 (setting [2]) and 4 µg/mL (≈ 9.06 µM) in the experiment with K. pneumoniae ATCC13883 (setting [3]).
The matching figures for `C[C@H](O)c1nccn1Cc1cc(-c2ccc(C#Cc3ccc(C(=O)O)cc3)cc2)on1` [Example 24, (S)-4-((4-(3-((2-(1-hydroxyethyl)-1H-imidazol-1-yl)methyl)isoxazol-5-yl)phenyl)ethynyl)benzoic acid]: 22.2 nM, 4 µg/mL (≈ 9.68 µM) and 8 µg/mL (≈ 19.4 µM).
As to `C[C@H](O)c1nccn1Cc1cc(-c2ccc(C#Cc3ccc(CN4CCC(N5CCOCC5)CC4)cc3)cc2)on1` [Example 51, (S)-1-(1-((5-(4-((4-((4-morpholinopiperidin-1-yl)methyl)phenyl)ethynyl)phenyl)isoxazol-3-yl)methyl)-1H-imidazol-2-yl)ethan-1-ol], the 50% inhibitory concentration (IC50) in experiment [1] (setting [4]) is 6.7 nM. Also, the values for the MIC in the experiment with E. coli ATCC 25922 (setting [2]) and in the experiment with K. pneumoniae ATCC13883 (setting [3]) were 2 µg/mL (≈ 3.63 µM) and 8 µg/mL (≈ 14.5 µM), respectively.
Take `C[C@H](O)c1nccn1Cc1cc(-c2ccc(C#Cc3ccc(CN4CCNC(=O)C4)nc3)cc2)on1` [Example 114, (S)-4-((5-((4-(3-((2-(1-hydroxyethyl)-1H-imidazol-1-yl)methyl)isoxazol-5-yl)phenyl)ethynyl)pyridin-2-yl)methyl)piperazin-2-one]: in experiment [1] (setting [4]), the IC50 amounted to 10.5 nM. In addition, the values for the MIC with E. coli ATCC 25922 (setting [2]) and in the experiment on K. pneumoniae ATCC13883 (setting [3]) were 2 µg/mL (≈ 4.14 µM) and 8 µg/mL (≈ 16.6 µM), respectively.
As for `C[C@H](O)c1nccn1Cc1cc(-c2ccc(C#Cc3ccc(CNCCO)cc3)cc2)on1` [Example 34, (S)-2-((4-((4-(3-((2-(1-hydroxyethyl)-1H-imidazol-1-yl)methyl)isoxazol-5-yl)phenyl)ethynyl)benzyl)amino)ethan-1-ol], in experiment [1], the IC50 is 4.86 nM. Also, the figures for the MIC with E. coli ATCC 25922 (setting [2]) and in the experiment with K. pneumoniae ATCC13883 (setting [3]) were 1 µg/mL (≈ 2.26 µM) and 2 µg/mL (≈ 4.52 µM), respectively.
With `C[C@H](O)c1nccn1Cc1cc(-c2ccc(C#Cc3ccc(CN4CCC(O)CC4)nc3)cc2)on1` [Example 36, (S)-1-((5-((4-(3-((2-(1-hydroxyethyl)-1H-imidazol-1-yl)methyl)isoxazol-5-yl)phenyl)ethynyl)pyridin-2-yl)methyl)piperidin-4-ol], in experiment [1] (setting [4]), the IC50 turned out to be 8.33 nM. Besides, the results for the MIC in the experiment on E. coli ATCC 25922 (setting [2]) and in the experiment on K. pneumoniae ATCC13883 (setting [3]) were 2 µg/mL (≈ 4.14 µM) and 4 µg/mL (≈ 8.27 µM), respectively.
Take `C[C@H](O)c1nccn1Cc1cc(-c2ccc(C#Cc3ccc(CN4CCC(CO)CC4)cc3)cc2)on1` [Example 56, (S)-1-(1-((5-(4-((4-((4-(hydroxymethyl)piperidin-1-yl)methyl)phenyl)ethynyl)phenyl)isoxazol-3-yl)methyl)-1H-imidazol-2-yl)ethan-1-ol]: the IC50 in experiment [1] (setting [4]) turned out to be 14.7 nM. The MIC in the experiment with E. coli ATCC 25922 (setting [2]) worked out at 2 µg/mL (≈ 4.03 µM); in the experiment on K. pneumoniae ATCC13883 (setting [3]), 4 µg/mL (≈ 8.05 µM).
The matching figures for `C[C@H](O)c1nccn1Cc1cc(-c2ccc(C#Cc3ccc(Cn4cccn4)cc3)cc2)on1` [Example 33, (S)-1-(1-((5-(4-((4-((1H-pyrazol-1-yl)methyl)phenyl)ethynyl)phenyl)isoxazol-3-yl)methyl)-1H-imidazol-2-yl)ethan-1-ol]: 28.1 nM, 0.125 µg/mL (≈ 0.278 µM) and 0.25 µg/mL (≈ 0.556 µM).
The matching figures for `C[C@H](O)c1nccn1Cc1cc(-c2ccc(C#Cc3ccc(OC4CCN(C)CC4)cc3)cc2)on1` [Example 44, (S)-1-(1-((5-(4-((4-((1-methylpiperidin-4-yl)oxy)phenyl)ethynyl)phenyl)isoxazol-3-yl)methyl)-1H-imidazol-2-yl)ethan-1-ol]: 18.6 nM, 2 µg/mL (≈ 4.14 µM) and 8 µg/mL (≈ 16.6 µM).
The matching figures for `C[C@H](O)c1nccn1Cc1cc(-c2ccc(C#Cc3ccc(CN4CC(C(N)=O)C4)cc3)cc2)on1` [Example 53, (S)-1-(4-((4-(3-((2-(1-hydroxyethyl)-1H-imidazol-1-yl)methyl)isoxazol-5-yl)phenyl)ethynyl)benzyl)azetidin-3-carboxamide]: 13.7 nM, 1 µg/mL (≈ 2.08 µM) and 4 µg/mL (≈ 8.31 µM).
With `C[C@H](O)c1nccn1Cc1cc(-c2ccc(C#Cc3ccc(CN4CCOCC4)cc3)cc2)on1` [Example 2, (S)-1-(1-((5-(4-((4-(morpholinomethyl)phenyl)ethynyl)phenyl)isoxazol-3-yl)methyl)-1H-imidazol-2-yl)ethan-1-ol], the IC50 in experiment [1] (setting [4]) worked out at 3.07 nM. In addition, the MIC with E. coli ATCC 25922 (setting [2]) turned out to be 0.5 µg/mL (≈ 1.07 µM); in the experiment on K. pneumoniae ATCC13883 (setting [3]), 1 µg/mL (≈ 2.13 µM).
The matching figures for `C[C@H](O)c1nccn1Cc1cc(-c2ccc(C#Cc3ccccc3)cc2)on1` [Example 7, (S)-1-(1-((5-(4-(phenylethynyl)phenyl)isoxazol-3-yl)methyl)-1H-imidazol-2-yl)ethan-1-ol]: 73.1 nM, 0.25 µg/mL (≈ 0.677 µM) and 0.5 µg/mL (≈ 1.35 µM).
Take `C[C@H](O)c1nccn1Cc1cc(-c2ccc(C#Cc3ccc(C(N)=O)nc3)cc2)on1` [Example 28, (S)-5-((4-(3-((2-(1-Hydroxyethyl)-1H-imidazol-1-yl)methyl)isoxazol-5-yl)phenyl)ethynyl)picolinamide]: the IC50 in experiment [1] is 19.9 nM. In addition, the results for the MIC in the experiment on E. coli ATCC 25922 (setting [2]) and in the experiment with K. pneumoniae ATCC13883 (setting [3]) were 1 µg/mL (≈ 2.42 µM) and 2 µg/mL (≈ 4.84 µM), respectively.
For `C[C@H](O)c1nccn1Cc1cc(-c2ccc(C#Cc3ccc(CN4CC(C#N)C4)cc3)cc2)on1` [Example 52, (S)-1-(4-((4-(3-((2-(1-hydroxyethyl)-1H-imidazol-1-yl)methyl)isoxazol-5-yl)phenyl)ethynyl)benzyl)azetidin-3-carbonitrile], in experiment [1] (setting [4]), the IC50 came to 11.2 nM. The MIC with E. coli ATCC 25922 (setting [2]) came out at 0.25 µg/mL (≈ 0.539 µM); in the experiment with K. pneumoniae ATCC13883 (setting [3]), 1 µg/mL (≈ 2.16 µM).
The matching figures for `C[C@H](O)c1nccn1Cc1cc(-c2ccc(C#Cc3ccc(C(N)=O)cc3)cc2)on1` [Example 23, (S)-4-((4-(3-((2-(1-hydroxyethyl)-1H-imidazol-1-yl)methyl)isoxazol-5-yl)phenyl)ethynyl)benzamide]: 7.75 nM, 0.25 µg/mL (≈ 0.606 µM) and 1 µg/mL (≈ 2.42 µM).
As to `C[C@H](O)c1nccn1Cc1cc(-c2ccc(C#Cc3ccc(CN4CCNC(=O)C4)cc3)cc2)on1` [Example 54, (S)-4-(4-((4-(3-((2-(1-hydroxyethyl)-1H-imidazol-1-yl)methyl)isoxazol-5-yl)phenyl)ethynyl)benzyl)piperazin-2-one], the IC50 in experiment [1] (setting [4]) came out at 16.2 nM. For the same compound, the minimal inhibitory concentration (MIC) was found to be 2 µg/mL (≈ 4.15 µM) in the experiment with E. coli ATCC 25922 (setting [2]) and 4 µg/mL (≈ 8.31 µM) in the experiment on K. pneumoniae ATCC13883 (setting [3]).
`C[C@H](O)c1nccn1Cc1cc(-c2ccc(C#Cc3ccc(CC(N)=O)nc3)cc2)on1` [Example 62, (S)-2-(5-((4-(3-((2-(1-hydroxyethyl)-1H-imidazol-1-yl)methyl)isoxazol-5-yl)phenyl)ethynyl)pyridin-2-yl)acetamide]: the IC50 in experiment [1] (setting [4]) came to 21.3 nM. In addition, the MIC with E. coli ATCC 25922 (setting [2]) amounted to 1 µg/mL (≈ 2.34 µM); with K. pneumoniae ATCC13883 (setting [3]) it was 4 µg/mL (≈ 9.36 µM).
The matching figures for `C[C@H](O)c1nccn1Cc1cc(-c2ccc(C#Cc3cccnc3)cc2)on1` [Example 9, (S)-1-(1-((5-(4-(pyridin-3-ylethynyl)phenyl)isoxazol-3-yl)methyl)-1H-imidazol-2-yl)ethan-1-ol]: 27.1 nM, 1 µg/mL (≈ 2.7 µM) and 2 µg/mL (≈ 5.4 µM).
With `C[C@H](O)c1nccn1Cc1cc(-c2ccc(C#Cc3ccc(OCCO)cc3)cc2)on1` [Example 29, (S)-1-(1-((5-(4-((4-(2-hydroxyethoxy)phenyl)ethynyl)phenyl)isoxazol-3-yl)methyl)-1H-imidazol-2-yl)ethan-1-ol], in experiment [1] (setting [4]), the IC50 worked out at 14 nM. Besides, the MIC with E. coli ATCC 25922 (ATCC25922, read-out: MIC(E. coli)) was 0.25 µg/mL (≈ 0.582 µM); in the experiment on K. pneumoniae ATCC13883 (ATCC13883, read-out: MIC(K. Pneumoniae)), 0.25 µg/mL (≈ 0.582 µM).
